Measurements reported in patent publication US10093653B2, “Vitamin D receptor-coregulator inhibitors” (UWM Research Foundation, Inc., priority 2011, dated 2018).
Values after ≈ are worked out from the molar mass of the structure shown.

How the values were obtained:
in vitro = conditions: PAMPA
physchem = conditions: pH 7.4, aqueous buffer, kinetic from dmso stock
OVCAR-8 = assay: Cytotoxicity, MTS assay; assay type: cell-based; conditions: OVCAR-8, within 48 hours
ECC-1 = assay: Cytotoxicity, MTS assay; assay type: cell-based; conditions: ECC-1 endometrial cancer cell-line, within 48 hours
TRPV6 in DU145 cells = assay: TRPV6 expression, semi-quantitative RT-PCR; assay type: cell-based
VDR-Hr1 = molecular target: T1, VDR-Hr1 (Homo sapiens, UniProt P11473, DEL165-215); assay: VDR-coregulator binding FP, Texas Red-labeled peptide; conditions: 3 h
T1 construct: made in house
T1 sequence (P11473 with tags, fused parts or gaps DEL165-215 limits assumed): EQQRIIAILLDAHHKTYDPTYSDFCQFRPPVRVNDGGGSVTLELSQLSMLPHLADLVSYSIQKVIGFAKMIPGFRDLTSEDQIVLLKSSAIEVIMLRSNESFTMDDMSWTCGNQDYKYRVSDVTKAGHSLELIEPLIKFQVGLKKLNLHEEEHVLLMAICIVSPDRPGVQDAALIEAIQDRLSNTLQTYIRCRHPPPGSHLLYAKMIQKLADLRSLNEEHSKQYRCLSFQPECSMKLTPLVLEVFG

VDR-LBD / SRC2-3 peptide = molecular target: T2, VDR-LBD / SRC2-3 peptide (Homo sapiens, UniProt P11473, DEL165-215); assay: Identification of reaction partner, pre-incubation FP; assay type: binding; conditions: FP after 5 minutes
T2 construct: made in house
T2 sequence (P11473 with tags, fused parts or gaps DEL165-215 limits assumed): T1 sequence (P11473 with tags, fused parts or gaps DEL165-215 limits assumed)

SKOV-3 cells [1] = assay: Western blots for cleaved PARP-1 and cleaved caspase-3; assay type: cell-based; conditions: SKOV-3, within 24 hours
VDR in SKOV-3 cells = assay: VDR expression, western blotting of whole cell lysate; assay type: cell-based; conditions: SKOV-3, 24 hours; 31b 25 and 50 uM, 32b 50 uM
Procedure: Expression of VDR was analyzed by western blotting of whole cell lysate using monoclonal antibody against VDR (Neomarker, Calif. cat no-RT-200PO).

[2] = PAMPA
SKOV-3 = assay: Cytotoxicity, MTS assay; assay type: cell-based; conditions: SKOV-3, within 48 hours
VDR-SRC2-1 = molecular target: T3, VDR-SRC2-1 (Homo sapiens, UniProt P11473, DEL165-215); assay: VDR-coregulator binding FP, Texas Red-labeled peptide; conditions: 3 h
T3 construct: made in house
T3 sequence (P11473 with tags, fused parts or gaps DEL165-215 limits assumed): T1 sequence (P11473 with tags, fused parts or gaps DEL165-215 limits assumed)

SKOV-3 cells [3] = assay: Mitochondrial transmembrane depolarization potential; assay type: cell-based
[4] = 12 h, pH 7.4
DU145 cells = assay: Cytotoxicity seen in TRPV6 expression study; assay type: cell-based; conditions: concentrations higher than 20 μM
VDR-SRC2 interaction = molecular target: T4, VDR-SRC2 interaction (Homo sapiens, UniProt P11473, DEL165-215); assay: Pull down assay, VDR and SRC2 bearing all three NIDs
T4 sequence (P11473 with tags, fused parts or gaps DEL165-215 limits assumed): T1 sequence (P11473 with tags, fused parts or gaps DEL165-215 limits assumed)

SKOV-3 cells [5] = assay: Western blots for phospho-p38 MAPkinase and phospho SAPK/JNK; assay type: cell-based; conditions: SKOV-3, 25 uM, within 24 hours
Description: (§1) Vitamin-d/VDR signaling protects the cancer cells from reactive oxygen species (ROS) induced cellular damages.

SKOV-3 cells [6] = assay: Cell cycle analysis by FACS; assay type: cell-based; conditions: SKOV-3, 24 hours
Description: Inducing cell cycle arrest or targeting cell-cycle regulators by small molecule modulators has shown promising outcomes in animal models.

SKOV-3 cells [7] = assay: Reactive oxygen species levels; assay type: cell-based; conditions: SKOV-3, within 24 hours
Description: as §1

CYP24A1 = CYP24A1 expression levels; assay type: cell-based; conditions: compound and calcitriol
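Throughout, for Papp: passive permeability measured by parallel artificial membrane permeability assay, each experiment run in triplicate.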
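Throughout, for Permeability Log(Pe): passive permeability measured by parallel artificial membrane permeability assay, each experiment run in triplicate.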

SMILES: Cc1[nH]c2ccccc2c1C(Nc1ccccc1)c1ccc(OCCCO)cc1 (stereo not shown) [Compound 30i, 3-(4-((2-methyl-1H-indol-3-yl)(phenylamino)methyl)phenoxy)propan-1-ol]
- Papp (in vitro): 0.148 ×10⁻⁶ cm/s
- solubility at 12 h (physchem): 503 µM (≈ 195 µg/mL)

SMILES: Cc1[nH]c2ccccc2c1C(Nc1ccc(Cl)cc1)c1ccccc1Cl (stereo not shown) [Compound 31b, 4-chloro-N-((2-chlorophenyl)(2-methyl-1H-indol-3-yl)methyl)aniline]
- Cytotoxicity, cell viability (OVCAR-8): potent cytotoxicity
- Cytotoxicity, cell viability (ECC-1): potent cytotoxicity
- TRPV6 transcription in the presence of 1,25-(OH)2D3 (TRPV6 in DU145 cells; 20 nM 1,25-(OH)2D3, different concentrations): reduced in a dose dependent manner
- TRPV6 regulation, single treatment (TRPV6 in DU145 cells; 20 μM, without 1,25-(OH)2D3): no regulation of TRPV6
- Inhibition of VDR-Hr1 binding (VDR-Hr1): no inhibition
- FP signal after pre-incubation with SRC2-3 for 3 hours, then addition of VDR-LBD and LG190178 (VDR-LBD / SRC2-3 peptide): did not change
- FP signal after pre-incubation with VDR-LBD and LG190178 for 3 hours, then addition of SRC2-3 (VDR-LBD / SRC2-3 peptide): did result in a change of FP signal
- Activation of caspase-3 (SKOV-3 cells [1]): activation of caspase-3
- Cleavage of PARP-1 (SKOV-3 cells [1]): significant cleavage of PARP-1
- Expression of VDR (VDR in SKOV-3 cells): downregulation of VDR
- Permeability Log(Pe) [2]: −6.24 cm/s
- Cytotoxicity, cell viability (SKOV-3): potent cytotoxicity
- Inhibition of VDR-SRC2-1 binding (VDR-SRC2-1): no inhibition
- Mitochondrial transmembrane depolarization potential (ΔΨm) (SKOV-3 cells [3]): induced activation of mitochondrial transmembrane depolarization potential
- Solubility [4]: 68.0 µM (≈ 25.9 µg/mL)
- Cytotoxicity in DU145 cells (DU145 cells): increased cytotoxicity
- Inhibition of VDR-SRC2 interaction in pull down assay (VDR-SRC2 interaction; 50 μM and 100 μM, residual interaction still detected): significant inhibition
- VDR-SRC2 interaction after pre-incubation of SRC2 with compound (VDR-SRC2 interaction; beads washed, then treated with VDR): VDR-SRC2 interactions could be verified
- Inhibition of VDR-SRC2 interaction in pull down assay (VDR-SRC2 interaction; different concentrations, with 1,25(OH)2D3): blocked in a dose dependent manner
- Activation of SAPK/JNK (SKOV-3 cells [5]): strong/sustained activation of SAPK/JNK
- Activation of p38 MAPkinase (SKOV-3 cells [5]): activation of p38 MAPkinase
- Apoptotic (subG1/G0) population (SKOV-3 cells [6]): increase
- Population in G1 and G2/M phase (SKOV-3 cells [6]): reduced
- S-phase arrest of cycling cells (SKOV-3 cells [6]): restricted the progression of cycling cells in S-phase significantly
- Reactive oxygen species level compared to vehicle (SKOV-3 cells [7]): elevated level of reactive production
- CYP24A1 induction with calcitriol, in comparison to calcitriol treatment (CYP24A1): significant increase in CYP24A1 induction
